Tested on: Plasmodium falciparum
Test: MMV: IC50 determined against P. falciparum Dd2-luc strain using a Malaria Sybr Green I Fluorescence assay. Starting conditions were 1% trophozoite synchronised parasites at 2% haematocrit. Fluorescence detection completed after 48hr incubation at 37 degrees C under 1% O2, 3% CO2 and balance N2.
Assay type: functional, organism-based
Conditions: Dd2, 48 h

Structure (SMILES)	IC50
Cc1ccc2nc(C)cc(Nc3cccc(C(F)(F)F)c3)c2c1	1390 nM
CCOc1cc(Cl)c(C(C)NC(=O)c2cccc(OC)c2)cc1OCC (centres undefined)	649 nM
Cc1ccc(-c2nc3ccccc3o2)cc1NCc1cc(Cc2ccccc2)ccc1O	1700 nM
CCN(CC)CCn1c(=N)n(CC(O)c2ccc(Cl)c(Cl)c2)c2ccccc21 (centres undefined)	404 nM
COc1ccc(Nc2cc(C)nc(NCc3ccccc3)n2)cc1	311 nM
COc1ccc(NC(=O)C2c3ccccc3C(=O)N(CC(C)C)C2c2cccs2)cc1 (centres undefined)	1260 nM
COc1ccc(CNC2CCN(c3ccc(NC(=O)c4cccc(Cl)c4)cc3)CC2)cc1OC	1190 nM
CCC(C)NCC(O)(c1ccc(Cl)cc1)c1ccc(Cl)cc1 (centres undefined)	551 nM
C=CCc1c(C)nc2ccccc2c1O	1480 nM
COc1ccc2c(c1)OC(O)(C(F)(F)C(F)(F)F)CC2=O (centres undefined)	370 nM
Cc1ccc(-c2cc3nc4c(c(O)n3n2)CCCC4)cc1	1780 nM
COCCn1c(C)nc2ccccc2c1=O	930 nM
CCOc1ccc(CCNC(=O)c2cccs2)cc1OCC	2720 nM
FC(F)(F)c1cccc(CNC2CCN(CCc3ccccc3)CC2)c1	490 nM
OC(CNCc1ccccc1)Cn1c2ccccc2c2ccccc21 (centres undefined)	1100 nM
O=C(Nc1ccc(Cl)cc1)N1CCN(c2ccc3nncn3n2)CC1	1040 nM
CCCc1cc(O)c2c3c(c(=O)oc2c1)CN(C)CC3	2570 nM
CC1CN(C(=O)c2sc3ccccc3c2Cl)CC(C)O1 (centres undefined)	104 nM
CC(NCc1ccccc1)c1cc(Cl)ccc1O (centres undefined)	498 nM
COc1ccc(OC)c(C2C3=C(CC(C)(C)CC3=O)N(c3ccc(Cl)c(Cl)c3)C3=C2C(=O)CC(C)(C)C3)c1	2980 nM
CCOc1ccc2c(c1)CN(Cc1ccc(Cl)cc1)CO2	617 nM
CCOC(=O)C1=CN(C)C=C(C(=O)OCC)C1c1cc(Br)c(OCC)c(OC)c1	458 nM
COc1cc(SC)ccc1C(=O)N1CCCC(C)C1 (centres undefined)	3950 nM
Cc1cc(Nc2ccc(C)c(Cl)c2)n2nc(C(F)(F)F)nc2n1	1240 nM
O=C(NCc1ccco1)C1CCN(S(=O)(=O)c2ccc(Cl)cc2)CC1	878 nM

Structure (SMILES)	IC50
Cc1ccc(C)c(Cn2c(N3CCC(C(=O)NCc4cccs4)CC3)nc3ccccc32)c1	1160 nM
CCOc1ccccc1CN1CCc2nc3cc(C(C)(C)C)nn3c(O)c2C1	1220 nM
O=C(NC1CCN(Cc2ccccc2)CC1)c1cc2nc(-c3ccc(Cl)s3)cc(C(F)(F)F)n2n1	5170 nM
Oc1c2c(nc3cc(-c4ccccc4)nn13)CCCC2	1560 nM
CCOc1cccc2sc(N(Cc3cccnc3)C(=O)C3CCCCC3)nc12	2700 nM
CCCCC(O)(c1ccc(Cl)cc1)C(CN1CCOCC1)c1ccc(Cl)cc1 (centres undefined)	3570 nM
COc1ccc(C2c3ccc4ccccc4c3Oc3ncn(CCCn4ccnc4)c(=N)c32)cc1OC (centres undefined)	1230 nM
CC1CC(C)CN(C(=O)c2ccc(Cl)cc2Cl)C1 (centres undefined)	1880 nM
CC(C)c1ccc(CNCC(O)c2ccccc2)cc1 (centres undefined)	1080 nM
O=C1c2ccccc2C2=Nc3ccccc3SC(c3cccc(F)c3)C12 (centres undefined)	766 nM
Cc1cc(NCCN2CCCCC2)c2ccc3ccccc3c2n1	309 nM
CCCCCCC(O)(c1ccc(F)cc1)C(CN1CCOCC1)c1ccccc1 (centres undefined)	3420 nM
Cc1cc(C)c2c(c1)OCN(Cc1ccccc1Cl)C2	297 nM
O=C(Nc1ccccc1O)c1ccc(-c2ccc(Cl)cc2Cl)o1	2990 nM
O=C(Nc1ccccc1O)c1ccc(Oc2cccc(C(=O)Nc3ccccc3O)c2)cc1	202 nM
Cc1cc(NC(=O)c2ccc(-c3ccccc3)cc2)no1	775 nM
COc1cccc(C(=O)NC(c2ccc(C)cc2)c2cc(Cl)c3cccnc3c2O)c1 (centres undefined)	940 nM
COc1cccc(NC(=O)[C@H](C(C)C)n2c(=O)[nH]c3ccccc3c2=O)c1	158 nM
Cc1cccc(-n2ncc3c(O)nc(-n4nc(C)cc4NC(=O)c4cc5ccccc5o4)nc32)c1	994 nM
CC(C)OCc1cc(CN2CCN(c3cccc(Cl)c3)CC2)c(O)c2ncccc12	573 nM
COc1cc2c3cc1Oc1c(OC)c(OC)cc4c1C(Cc1ccc(O)c(c1)Oc1ccc(cc1)CC3N(C)CC2)N(C)CC4 (centres undefined)	692 nM
CCOc1cc2c(cc1OCC)C(c1cc(OC)c(O)cc1Cl)NCC2 (centres undefined)	120 nM
O=C(CCc1ccco1)NC1CCN(CC2(c3ccc(Cl)cc3)CCC2)CC1	1030 nM
COc1cc(OC)c(N(C)C(=O)c2cc3c(s2)-c2ccccc2S(=O)(=O)C3)cc1Cl	298 nM
COc1ccc2c(c1OC)C(=O)N1c3ccccc3N=C(c3ccc(C)cc3)CC21 (centres undefined)	1690 nM

Structure (SMILES)	IC50
FC(F)(F)c1cccc(Nc2nc(-c3ccccc3)nc3ncccc23)c1	885 nM
O=C(Nc1cccc(C2=NCCN2)c1)Nc1cccc(C2=NCCN2)c1 [IMIDOCARB]	332 nM
COc1ccccc1N1CCN(C(CNS(=O)(=O)c2ccc(Cl)cc2)c2cccnc2)CC1 (centres undefined)	913 nM
Clc1cc(Br)ccc1-c1ccc(CNCC2CCNCC2)o1	596 nM
CCCCCCn1c(=N)n(CC(O)COc2cccc(C)c2)c2ccccc21 (centres undefined)	1800 nM
COc1ccc2c(=O)cc(C(Cl)(Cl)Cl)oc2c1	958 nM
COc1cc(CNCCc2ccc(Cl)cc2)cc(OC)c1O	1870 nM
CN(C)c1ccc(N2C(N)=NC(N)=NC2(C)C)cc1	158 nM
OC(CNC1CCCCC1)Cn1c2ccc(I)cc2c2cc(I)ccc21 (centres undefined)	436 nM
CSc1ccccc1C(=O)Nc1nc(-c2ccccn2)cs1	1800 nM
Cc1cc(N2CCN(C3CCCC3)CC2)n2c(nc3ccccc32)c1C#N	916 nM
O=C(NC1CCN(Cc2ccccc2)CC1)c1cc(-c2ccncc2)nc2ccc(Cl)cc12	1480 nM
Cc1c(C)n(Cc2ccc(F)cc2)c2ccc(C(=O)NCc3ccco3)cc12	82.7 nM
O=C(Nc1ccc(Cl)c(Cl)c1)Nc1ccc(Cl)c(Cl)c1	3880 nM
O=C(NC1CCN(Cc2ccccc2)CC1)c1cc(-c2cccnc2)nc2ccc(Cl)cc12	1220 nM
COc1ccc(-c2cc3c(nn2)-c2ccccc2C3=O)cc1	731 nM
CC(C)(C)c1ccc(O)c(CNC2CCCCC2)c1	181 nM
CN(C)c1ccc(-c2nc3cc(N)ccc3[nH]2)cc1	1240 nM
c1ccc(-c2ccc(-c3nc4ccccc4[nH]3)cc2)cc1	2000 nM
Oc1ccc(C(=C(Cl)Cl)c2ccc(O)cc2)cc1	1910 nM
CCn1nc(-c2ccc(C(=O)OC)cc2)nc2c(=O)n(C)c(=O)nc1-2	691 nM
COc1ccc2nc(N)nc(C)c2c1	1870 nM
CCOc1ccc2nc(C)cc(Nc3ccc(Br)cc3)c2c1	791 nM
COc1ccc(Nc2nc(N/N=C/c3ccc(O)cc3)nc(Nc3ccc([N+](=O)[O-])cc3)n2)cc1	1530 nM
Cn1c(=O)c2cc(C(=O)NCCCN3CCCCCC3)sc2c2ccccc21	366 nM

Structure (SMILES)	IC50
COc1ccc(CNC(=O)c2cc3c(=O)n4ccccc4nc3n(CCc3ccccc3)c2=N)cc1	1230 nM
CC1CCN(Cc2ccc(NC(=O)c3cc4ccc5cccnc5c4[nH]3)cc2)CC1	242 nM
Nc1ccc(-c2nc3cc(Oc4ccc(Oc5ccc6[nH]c(-c7ccc(N)cc7)nc6c5)cc4)ccc3[nH]2)cc1	315 nM
CCCCc1ccc(NS(=O)(=O)c2cc3c4c(c2)CCN4C(=O)CC3)cc1	3680 nM
CNCCCNc1ccnc2cc(Cl)ccc12	437 nM
COc1ccc2c(c1)C1(Nc3ccccc3-c3nc4ccccc4n31)C(=O)N2 (centres undefined)	239 nM
COc1ccc(CCNC(=O)c2cc(S(=O)(=O)N3CC(C)CC(C)C3)ccc2Sc2ccc(F)cc2)cc1OC (centres undefined)	1330 nM
CN1CCN(c2ncnc3c2[nH]c2ccc(Cl)cc23)CC1	1180 nM
COc1cccc(O)c1CN1CCC2(CCCN(Cc3ccc(F)cc3)C2)C1 (centres undefined)	502 nM
CC(C)(C)c1ccc2c(c1)CN(Cc1ccc(Cl)cc1)CO2	196 nM
O=C(NCC1Cc2cccc(-c3ccncc3)c2O1)c1csc2c1CCCC2 (centres undefined)	1690 nM
Oc1ccccc1CNCC12CC3CC(CC(C3)C1)C2	283 nM
c1ccc(CNc2nc(Nc3ccccc3)nc3ccccc23)cc1	897 nM
CCC(c1ccccc1)c1nn2c(-c3cccs3)nnc2s1 (centres undefined)	338 nM
CC(C)(C)CC(C)(C)NCC(O)COc1ccc2c(c1)CCC2 (centres undefined)	1760 nM
O=C(Nc1cccc(-c2nc3ccccc3[nH]2)c1)c1cccc(NC(=O)c2ccco2)c1	506 nM
c1ccc2c(NCCCCCCNc3c4c(nc5ccccc35)CCCC4)c3c(nc2c1)CCCC3	545 nM
O=C(Nc1ccsc1C(=O)NC1CCCCC1)c1ccc(F)cc1	1040 nM
COc1cc(-c2nc(-c3ccc(Sc4ccccc4)cc3)c(-c3ccccc3)[nH]2)cc(OC)c1O	734 nM
O=C(NCc1ccco1)C1CCN(S(=O)(=O)c2ccc(Br)cc2)CC1	901 nM
CC1CC2=C(CC1CNCCCN(C)C)C(C)(C)CCC2 (centres undefined)	476 nM
CC(=O)NCCc1nc2ccccc2n1Cc1ccc(C(C)C)cc1	1490 nM
COc1ccc(C(=O)C2CC2c2ccc(Cl)cc2)cc1 (centres undefined)	3290 nM
CCN(CC)S(=O)(=O)c1ccc(-c2csc(Nc3ccc(C)c(C)c3)n2)cc1	933 nM
